The values below come from ChEMBL document CHEMBL5550160, “Leveraging a rationally designed veliparib-based anilide eliciting anti-leukemic effects for the design of pH-responsive polymer nanoformulation” (Eur J Med Chem, 2024).

Molecules are shown by their SMILES. Activity calls are given as the source filed them. The calls are words filed in the database; no cut-off is given here.

The target of experiment [1] is T1, Histone deacetylase 2 (Homo sapiens, UniProt Q92769). Put plainly: Inhibition of HDAC2 (unknown origin) assessed as residual activity at 4.57 x 10^-9M (reference value: 99.81%). The conditions noted are these: dose 4.57 10^-9M.
The subject of a further experiment is HL-60. Nature of the experiment: Induction of cell cycle arrest in human HL-60 cells assessed as accumulation of cells at sub-G1 phase at 0.5 to 1 times IC50 by PI staining based flow cytometry analysis. The class given is functional. In general terms: Flow cytometry measures light scatter and fluorescence of single cells or particles in a stream.
Experiment [2] deals with T1, Histone deacetylase 2. Nature of the experiment: Inhibition of HDAC2 (unknown origin) assessed as residual activity at 4.12 x 10^-8M (reference value: 99.81%). The conditions noted are these: dose 4.12 10^-8M.
Experiment [3] addresses T2, Protein deacetylase HDAC6 (Homo sapiens) (UniProt Q9UBN7).
T2 sequence (whole entry): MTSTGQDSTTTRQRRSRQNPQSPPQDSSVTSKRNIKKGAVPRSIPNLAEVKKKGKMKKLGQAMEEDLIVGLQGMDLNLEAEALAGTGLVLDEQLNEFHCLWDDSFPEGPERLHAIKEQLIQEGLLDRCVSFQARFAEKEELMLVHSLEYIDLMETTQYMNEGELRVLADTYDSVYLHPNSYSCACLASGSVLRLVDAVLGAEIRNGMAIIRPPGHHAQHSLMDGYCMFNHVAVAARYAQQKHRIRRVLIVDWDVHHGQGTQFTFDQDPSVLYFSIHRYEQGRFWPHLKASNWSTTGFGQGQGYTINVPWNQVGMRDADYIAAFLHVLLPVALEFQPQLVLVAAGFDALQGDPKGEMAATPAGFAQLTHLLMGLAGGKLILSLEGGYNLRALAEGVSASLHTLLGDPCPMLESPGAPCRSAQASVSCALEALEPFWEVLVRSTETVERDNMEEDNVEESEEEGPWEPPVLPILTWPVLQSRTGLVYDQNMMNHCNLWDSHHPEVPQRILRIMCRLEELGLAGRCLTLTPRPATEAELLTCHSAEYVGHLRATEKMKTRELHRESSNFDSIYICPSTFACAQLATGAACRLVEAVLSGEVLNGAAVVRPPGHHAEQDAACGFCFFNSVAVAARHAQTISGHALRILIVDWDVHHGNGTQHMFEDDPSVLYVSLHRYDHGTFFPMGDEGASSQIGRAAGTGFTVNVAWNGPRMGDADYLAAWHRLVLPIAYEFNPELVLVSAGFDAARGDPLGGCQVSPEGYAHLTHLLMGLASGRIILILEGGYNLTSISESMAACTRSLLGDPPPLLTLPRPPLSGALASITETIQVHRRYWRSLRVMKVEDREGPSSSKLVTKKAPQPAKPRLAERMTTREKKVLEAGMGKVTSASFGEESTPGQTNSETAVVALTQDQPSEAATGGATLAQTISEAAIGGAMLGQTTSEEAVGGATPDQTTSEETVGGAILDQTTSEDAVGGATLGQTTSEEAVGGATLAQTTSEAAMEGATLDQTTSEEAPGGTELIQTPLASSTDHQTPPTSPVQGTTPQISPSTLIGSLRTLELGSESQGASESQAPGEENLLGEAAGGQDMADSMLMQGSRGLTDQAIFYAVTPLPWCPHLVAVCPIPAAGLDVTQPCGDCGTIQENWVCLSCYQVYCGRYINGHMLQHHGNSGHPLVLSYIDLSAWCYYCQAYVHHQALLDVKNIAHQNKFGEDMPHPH
Nature of the experiment: Inhibition of HDAC6 (unknown origin) using p53 residues 379 to 382 [RHKK(Ac)] as fluorogenic substrate assessed as residual activity at 3.70 x 10^-7M (reference value: 101.06%). The conditions noted are these: dose 3.7 10^-7M.

The target in experiment [4] is T3, Histone deacetylase 7 (Homo sapiens) (UniProt Q8WUI4).
T3 sequence (whole entry): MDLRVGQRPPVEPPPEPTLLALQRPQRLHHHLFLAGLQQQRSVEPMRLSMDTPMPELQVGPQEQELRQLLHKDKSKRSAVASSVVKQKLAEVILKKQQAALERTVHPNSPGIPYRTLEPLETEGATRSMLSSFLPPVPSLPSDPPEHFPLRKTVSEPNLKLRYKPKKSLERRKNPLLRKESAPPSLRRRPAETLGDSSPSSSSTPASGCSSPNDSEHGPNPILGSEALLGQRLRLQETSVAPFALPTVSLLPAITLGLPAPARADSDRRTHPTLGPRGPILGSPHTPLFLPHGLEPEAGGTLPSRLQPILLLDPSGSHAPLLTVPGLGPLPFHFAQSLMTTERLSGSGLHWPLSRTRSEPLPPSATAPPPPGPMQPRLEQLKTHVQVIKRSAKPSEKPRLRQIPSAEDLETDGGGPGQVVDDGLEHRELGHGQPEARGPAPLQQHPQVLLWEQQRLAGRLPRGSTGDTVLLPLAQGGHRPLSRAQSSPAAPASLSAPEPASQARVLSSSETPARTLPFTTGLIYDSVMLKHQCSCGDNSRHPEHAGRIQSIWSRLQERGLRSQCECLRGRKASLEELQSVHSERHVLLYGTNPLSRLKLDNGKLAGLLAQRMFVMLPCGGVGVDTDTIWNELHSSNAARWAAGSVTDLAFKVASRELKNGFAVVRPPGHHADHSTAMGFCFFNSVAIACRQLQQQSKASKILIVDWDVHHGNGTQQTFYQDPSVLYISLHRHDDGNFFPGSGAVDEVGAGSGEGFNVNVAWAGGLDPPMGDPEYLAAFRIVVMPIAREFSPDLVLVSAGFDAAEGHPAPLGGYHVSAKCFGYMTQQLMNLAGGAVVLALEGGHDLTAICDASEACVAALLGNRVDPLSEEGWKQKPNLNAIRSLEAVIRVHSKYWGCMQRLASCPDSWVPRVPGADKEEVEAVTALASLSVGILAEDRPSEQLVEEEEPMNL
Put plainly: Inhibition of HDAC7 (unknown origin) assessed as residual activity at 1.1 x 10^-6M (reference value: 102.66%). The conditions noted are these: dose 1.1 10^-6M.

In experiment [5] the target is Histone deacetylase 4 (Homo sapiens) (UniProt P56524). Nature of the experiment: Inhibition of HDAC4 (unknown origin) assessed as residual activity at 3.33 x 10^-6M (reference value: 98.90%). The conditions noted are these: dose 3.33 10^-6M.
Experiment [6] has the same target. Nature of the experiment: Inhibition of HDAC4 (unknown origin) assessed as residual activity at 4.57 x 10^-9M (reference value: 98.90%). The conditions noted are these: dose 4.57 10^-9M.
Experiment [7] deals with T2, Protein deacetylase HDAC6 (Homo sapiens). Nature of the experiment: Inhibition of HDAC6 (unknown origin) using p53 residues 379 to 382 [RHKK(Ac)] as fluorogenic substrate assessed as residual activity at 4.57 x 10^-9M (reference value: 101.06%). The conditions noted are these: dose 4.57 10^-9M.

T1 sequence (Q92769 whole entry): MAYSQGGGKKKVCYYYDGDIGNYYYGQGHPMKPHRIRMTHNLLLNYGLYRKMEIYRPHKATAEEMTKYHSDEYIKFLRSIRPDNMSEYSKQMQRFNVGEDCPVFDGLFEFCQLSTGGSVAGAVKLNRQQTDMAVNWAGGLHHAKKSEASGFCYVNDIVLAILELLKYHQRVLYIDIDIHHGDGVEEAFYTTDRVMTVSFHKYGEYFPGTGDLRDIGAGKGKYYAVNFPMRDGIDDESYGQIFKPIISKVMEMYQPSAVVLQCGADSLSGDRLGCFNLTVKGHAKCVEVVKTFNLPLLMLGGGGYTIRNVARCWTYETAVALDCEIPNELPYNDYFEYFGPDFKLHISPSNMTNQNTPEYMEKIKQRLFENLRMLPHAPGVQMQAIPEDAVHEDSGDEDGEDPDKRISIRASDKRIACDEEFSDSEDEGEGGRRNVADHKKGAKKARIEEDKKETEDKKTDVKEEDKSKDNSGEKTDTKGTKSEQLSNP
Histone deacetylase 4 (Homo sapiens), sequence (P56524 whole entry): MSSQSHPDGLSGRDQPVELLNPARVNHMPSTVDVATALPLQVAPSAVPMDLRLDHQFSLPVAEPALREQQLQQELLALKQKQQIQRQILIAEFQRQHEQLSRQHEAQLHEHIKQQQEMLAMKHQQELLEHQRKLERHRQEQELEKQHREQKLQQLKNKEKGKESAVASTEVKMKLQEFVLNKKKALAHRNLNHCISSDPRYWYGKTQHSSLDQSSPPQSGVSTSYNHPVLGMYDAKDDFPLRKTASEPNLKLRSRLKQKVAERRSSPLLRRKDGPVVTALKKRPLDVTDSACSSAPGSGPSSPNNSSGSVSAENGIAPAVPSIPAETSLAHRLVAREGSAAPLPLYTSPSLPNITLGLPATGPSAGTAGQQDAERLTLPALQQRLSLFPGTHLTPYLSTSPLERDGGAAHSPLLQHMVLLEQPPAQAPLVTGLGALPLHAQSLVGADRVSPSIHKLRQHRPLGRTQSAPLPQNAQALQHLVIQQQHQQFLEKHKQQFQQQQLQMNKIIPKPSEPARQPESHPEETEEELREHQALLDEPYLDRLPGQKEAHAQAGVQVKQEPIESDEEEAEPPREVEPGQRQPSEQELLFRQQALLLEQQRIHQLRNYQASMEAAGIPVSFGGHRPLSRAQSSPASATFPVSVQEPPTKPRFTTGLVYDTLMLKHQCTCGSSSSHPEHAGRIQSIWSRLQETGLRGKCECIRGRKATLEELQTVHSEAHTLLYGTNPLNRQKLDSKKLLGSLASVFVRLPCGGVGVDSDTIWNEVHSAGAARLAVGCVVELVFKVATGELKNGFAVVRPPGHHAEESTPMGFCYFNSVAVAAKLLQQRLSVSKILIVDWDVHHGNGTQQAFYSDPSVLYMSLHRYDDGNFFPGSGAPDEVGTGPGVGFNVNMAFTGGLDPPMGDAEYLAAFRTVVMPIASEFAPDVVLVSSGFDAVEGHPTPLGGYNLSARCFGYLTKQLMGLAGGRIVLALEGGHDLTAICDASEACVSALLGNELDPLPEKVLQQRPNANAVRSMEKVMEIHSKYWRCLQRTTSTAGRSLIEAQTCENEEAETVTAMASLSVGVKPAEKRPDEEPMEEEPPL

With `NC(=O)c1cccc2[nH]c(-c3ccc(NCc4ccc(C(=O)Nc5ccccc5N)cc4)cc3)nc12`, the Activity on Histone deacetylase 2 [1] turned out to be 89.2%; at Histone deacetylase 2 [2], 69.7%; in experiment [3], 101%; in experiment [4], 78.2%; in experiment [5], 94.3%; in experiment [6], 95.9%. In addition, the Activity in experiment [7] came out at 103%. Moreover, the outcome with HL-60 was inactive.
